Test results as given in ChEMBL document CHEMBL3739316, “Novel orally active inhibitors of β-1,3-glucan synthesis derived from enfumafungin” (Bioorg Med Chem Lett, 2015).
In brackets after ≈: the same amount, converted by molar mass.

Tests used:
Beta-1,3-glucan synthase = biological target: T1, Beta-1,3-glucan synthase (Candida albicans, UniProt O13383); assay: Displacement of UDP-[3H]glucose from beta-1,3-glucan synthase in Candida albicans MY1055 microsomal membranes incubated for 2 hrs
T1 sequence (O13383 whole entry): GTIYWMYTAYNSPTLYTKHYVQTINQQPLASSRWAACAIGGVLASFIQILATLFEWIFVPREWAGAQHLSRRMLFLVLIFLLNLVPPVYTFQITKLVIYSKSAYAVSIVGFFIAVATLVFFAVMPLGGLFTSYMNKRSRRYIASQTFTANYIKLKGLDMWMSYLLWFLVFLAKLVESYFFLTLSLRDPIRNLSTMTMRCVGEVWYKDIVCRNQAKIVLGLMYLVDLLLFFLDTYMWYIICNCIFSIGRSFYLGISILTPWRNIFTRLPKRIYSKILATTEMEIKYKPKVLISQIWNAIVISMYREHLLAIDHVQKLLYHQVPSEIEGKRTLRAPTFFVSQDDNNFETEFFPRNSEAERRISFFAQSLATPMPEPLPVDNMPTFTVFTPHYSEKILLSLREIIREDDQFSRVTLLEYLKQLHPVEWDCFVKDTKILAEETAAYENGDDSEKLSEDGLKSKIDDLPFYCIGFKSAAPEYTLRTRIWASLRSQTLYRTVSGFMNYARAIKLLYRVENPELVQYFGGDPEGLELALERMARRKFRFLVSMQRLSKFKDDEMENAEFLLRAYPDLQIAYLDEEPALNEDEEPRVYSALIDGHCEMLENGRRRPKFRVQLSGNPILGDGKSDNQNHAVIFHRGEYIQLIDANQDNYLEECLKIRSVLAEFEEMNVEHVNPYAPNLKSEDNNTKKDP

Aspergillus fumigatus = assay: Antifungal activity against Aspergillus fumigatus MF5668 after 24 hrs by liquid microdilution assay; assay type: functional; conditions: MF5668, 24 h, read-out: MEC
Candida albicans [1] = assay: Antifungal activity against Candida albicans MY1055 after 24 hrs by liquid microdilution assay; assay type: functional; conditions: MY1055, 24 h
Candida albicans [2] = assay: Antifungal activity against Candida albicans MY1055 after 24 hrs by liquid microdilution assay in presence of human serum; assay type: functional; conditions: MY1055, 24 h
Candida albicans [3] = assay: Antifungal activity against Candida albicans MY1055 in DBA/2 mouse candidiasis model assessed as change in CFU per gram of kidney at 25 mg/kg, po bid after 4 days by Target Organ Kidney Assay relative to sham treated control; assay type: functional
Candida albicans [4] = assay: Antifungal activity against Candida albicans MY1055 in DBA/2 mouse candidiasis model assessed as change in CFU per gram of kidney at 12.5 mg/kg, po bid after 4 days by Target Organ Kidney Assay relative to sham treated control; assay type: functional
Mus musculus = assay: Dose normalized AUC in orally dosed mouse; assay type: ADME, organism-based; conditions: in vivo, po
[5] = Oral bioavailability in mouse; assay type: ADME, organism-based; conditions: in vivo
Candida albicans [6] = assay: Antifungal activity against Candida albicans MY1055 in DBA/2 mouse candidiasis model assessed as change in CFU per gram of kidney at 6.25 mg/kg, po bid after 4 days by Target Organ Kidney Assay relative to sham treated control; assay type: functional

| SMILES | IC50 (Beta-1,3-glucan synthase) [nM] | MIC (Candida albicans [1]) [µg/mL] | MIC (Candida albicans [2]) [µg/mL] | AUC/dose (Mus musculus) [µM·kg·h/mg] | bioavailability [5] [%] | minimal effective concentration (Aspergillus fumigatus) [µg/mL] | Activity (Candida albicans [3]) [deltalog10CFU] | Activity (Candida albicans [4]) [deltalog10CFU] | Activity (Candida albicans [6]) [deltalog10CFU] |
| --- | --- | --- | --- | --- | --- | --- | --- | --- | --- |
| COc1ccc([C@@H]2C[C@@]34COCC(C)([C@H]2O[C@@H]2O[C@H](CO)[C@@H](O)[C@H](O)[C@H]2O)[C@@H]3CC[C@H]2C4=CC[C@@]3(C)[C@H](C(=O)O)[C@@](C)([C@H](C)C(C)C)CC[C@]23C)cc1 | 634 | 2 (≈ 2.7 µM) | > 32 | – | – | 0.25 | – | – | – |
| CC(C)[C@@H](C)[C@@]1(C)CC[C@]2(C)[C@H]3CC[C@H]4C5(C)COC[C@@]4(C[C@@H](n4cncn4)[C@@H]5O[C@@H]4O[C@H](CO)[C@@H](O)[C@H](O)[C@H]4O)C3=CC[C@@]2(C)[C@@H]1C(=O)O | 342 | 2 (≈ 2.85 µM) | 32 | – | – | 0.125 | – | – | – |
| CC(C)[C@@H](C)[C@@]1(C)CC[C@]2(C)[C@H]3CC[C@H]4C5(C)COC[C@@]4(C[C@@H](n4cnnc4)[C@@H]5O[C@@H]4O[C@H](CO)[C@@H](O)[C@H](O)[C@H]4O)C3=CC[C@@]2(C)[C@@H]1C(=O)O | – | 4 (≈ 5.7 µM) | > 32 | – | – | 1 | – | – | – |
| CC(C)[C@@H](C)[C@@]1(C)CC[C@]2(C)[C@H]3CC[C@H]4C5(C)COC[C@@]4(C[C@@H](n4cccn4)[C@@H]5O[C@@H]4O[C@H](CO)[C@@H](O)[C@H](O)[C@H]4O)C3=CC[C@@]2(C)[C@@H]1C(=O)O | 813 | 2 (≈ 2.85 µM) | > 32 | – | – | 0.06 | – | – | – |
| CC(C)[C@@H](C)[C@@]1(C)CC[C@]2(C)[C@H]3CC[C@H]4C5(C)COC[C@@]4(C[C@@H](n4cc6ccccc6n4)[C@@H]5O[C@@H]4O[C@H](CO)[C@@H](O)[C@H](O)[C@H]4O)C3=CC[C@@]2(C)[C@@H]1C(=O)O | 1200 | 32 (≈ 42.6 µM) | > 32 | – | – | 2 | – | – | – |
| CC(C)[C@@H](C)[C@@]1(C)CC[C@]2(C)[C@H]3CC[C@H]4C5(C)COC[C@@]4(C[C@@H](n4ncc6ccccc64)[C@@H]5O[C@@H]4O[C@H](CO)[C@@H](O)[C@H](O)[C@H]4O)C3=CC[C@@]2(C)[C@@H]1C(=O)O | > 1330 | 32 (≈ 42.6 µM) | > 32 | – | – | 8 | – | – | – |
| CC(C)[C@@H](C)[C@@]1(C)CC[C@]2(C)[C@H]3CC[C@H]4C5(C)COC[C@@]4(C[C@@H](n4ccc6ccccc64)[C@@H]5O[C@@H]4O[C@H](CO)[C@@H](O)[C@H](O)[C@H]4O)C3=CC[C@@]2(C)[C@@H]1C(=O)O | 1410 | > 32 | > 32 | – | – | 4 | – | – | – |
| CC(C)[C@@H](C)[C@@]1(C)CC[C@]2(C)[C@H]3CC[C@H]4C5(C)COC[C@@]4(C[C@@H](n4ccnn4)[C@@H]5O[C@@H]4O[C@H](CO)[C@@H](O)[C@H](O)[C@H]4O)C3=CC[C@@]2(C)[C@@H]1C(=O)O | > 14200 | > 32 | > 32 | – | – | 2 | – | – | – |
| CCCCN[C@@](C)(CO[C@H]1[C@H](n2nnc(N)n2)C[C@@]23COCC1(C)[C@@H]2CC[C@H]1C3=CC[C@@]2(C)[C@H](C(=O)O)[C@@](C)([C@H](C)C(C)C)CC[C@]12C)C(C)C | 14.1 | 16 (≈ 22.5 µM) | 32 | 0.74 | 30 | 0.125 | -2.6 | -1.2 | -0.1 |
| CC(C)[C@@H](C)[C@@]1(C)CC[C@]2(C)[C@H]3CC[C@H]4C5(C)COC[C@@]4(C[C@@H](n4nccn4)[C@@H]5O[C@@H]4O[C@H](CO)[C@@H](O)[C@H](O)[C@H]4O)C3=CC[C@@]2(C)[C@@H]1C(=O)O | 1410 | > 32 | > 32 | – | – | 0.5 | – | – | – |
| CC(C)[C@@H](C)[C@@]1(C)CC[C@]2(C)[C@H]3CC[C@H]4C5(C)COC[C@@]4(C[C@@H](Oc4ccccc4)[C@@H]5O[C@@H]4O[C@H](CO)[C@@H](O)[C@H](O)[C@H]4O)C3=CC[C@@]2(C)[C@@H]1C(=O)O | 578 | 2 (≈ 2.75 µM) | 32 | – | – | 0.125 | – | – | – |

Second part, led by results:

| IC50 (Beta-1,3-glucan synthase) [nM] | MIC (Candida albicans [1]) [µg/mL] | MIC (Candida albicans [2]) [µg/mL] | AUC/dose (Mus musculus) [µM·kg·h/mg] | bioavailability [5] [%] | SMILES | minimal effective concentration (Aspergillus fumigatus) [µg/mL] | Activity (Candida albicans [3]) [deltalog10CFU] | Activity (Candida albicans [4]) [deltalog10CFU] | Activity (Candida albicans [6]) [deltalog10CFU] |
| --- | --- | --- | --- | --- | --- | --- | --- | --- | --- |
| 86.1 | 0.25 (≈ 0.359 µM) | 16 | – | – | CC(=O)Nc1nnn([C@@H]2C[C@@]34COCC(C)([C@H]2OC[C@](C)(N)C(C)C)[C@@H]3CC[C@H]2C4=CC[C@@]3(C)[C@H](C(=O)O)[C@@](C)([C@H](C)C(C)C)CC[C@]23C)n1 | < 0.03 | – | – | – |
| 22.2 | 0.25 (≈ 0.397 µM) | 16 | 0.73 | 31 | CC(=O)O[C@@H]1C[C@@]23COCC(C)([C@H]1OC[C@@](C)(N)C(C)C)[C@@H]2CC[C@H]1C3=CC[C@@]2(C)[C@H](C(=O)O)[C@@](C)([C@H](C)C(C)C)CC[C@]12C | < 0.03 | -1.9 | -0.1 | -0.5 |
| 56.5 | 4 (≈ 6.11 µM) | > 32 | – | – | CC(C)[C@@H](C)[C@@]1(C)CC[C@]2(C)[C@H]3CC[C@H]4C5(C)COC[C@@]4(C[C@@H](n4nnnc4N)[C@@H]5OC[C@](C)(N)C(C)C)C3=CC[C@@]2(C)[C@@H]1C(=O)O | 0.25 | – | – | – |
| 9.52 | 0.5 (≈ 0.794 µM) | > 32 | 1.38 | 39 | CC(=O)O[C@@H]1C[C@@]23COCC(C)([C@H]1OC[C@](C)(N)C(C)C)[C@@H]2CC[C@H]1C3=CC[C@@]2(C)[C@H](C(=O)O)[C@@](C)([C@H](C)C(C)C)CC[C@]12C | 0.06 | -2.2 | -0.6 | -0.6 |
| 71.9 | 8 (≈ 12.2 µM) | > 32 | – | – | Cc1nnnn1[C@@H]1C[C@@]23COCC(C)([C@H]1OC[C@](C)(N)C(C)C)[C@@H]2CC[C@H]1C3=CC[C@@]2(C)[C@H](C(=O)O)[C@@](C)([C@H](C)C(C)C)CC[C@]12C | 4 | – | – | – |
| 81.8 | 8 (≈ 11.5 µM) | > 32 | – | – | CC(=O)Nc1nnnn1[C@@H]1C[C@@]23COCC(C)([C@H]1OC[C@](C)(N)C(C)C)[C@@H]2CC[C@H]1C3=CC[C@@]2(C)[C@H](C(=O)O)[C@@](C)([C@H](C)C(C)C)CC[C@]12C | < 0.03 | – | – | – |
| 74.8 | 1 (≈ 1.66 µM) | 32 | 1.22 | 37 | CC(=O)O[C@@H]1C[C@@]23COCC(C)([C@H]1OCC(C)(C)N)[C@@H]2CC[C@H]1C3=CC[C@@]2(C)[C@H](C(=O)O)[C@@](C)([C@H](C)C(C)C)CC[C@]12C | < 0.03 | -1.4 | – | – |
| 24.5 | 1 (≈ 1.53 µM) | > 32 | – | – | Cc1nnn([C@@H]2C[C@@]34COCC(C)([C@H]2OC[C@](C)(N)C(C)C)[C@@H]3CC[C@H]2C4=CC[C@@]3(C)[C@H](C(=O)O)[C@@](C)([C@H](C)C(C)C)CC[C@]23C)n1 | 0.5 | – | – | – |
